Experimental data taken from ChEMBL document CHEMBL6071124, “The search for pyruvate kinase-R activators; from a HTS screening hit via an impurity to the discovery of a lead series” (Bioorg Med Chem Lett, 2024).
Values after ≈ are worked out from the molar mass of the structure shown.

Legend:
Pyruvate kinase PKLR [1] = biological target: T1, Pyruvate kinase PKLR (Homo sapiens, UniProt P30613); experiment: Activation of PKR (unknown origin) by differential scanning fluorimetry analysis
Pyruvate kinase PKLR [2] = biological target: T1, Pyruvate kinase PKLR; experiment: Activation of PKR (unknown origin)
[3] = Genotoxicity in Salmonella typhimurium; format: toxicity; conditions: salmonella enterica subsp. enterica serovar typhimurium
[4] = Permeability of the compound across apical to basolateral side; format: ADME; conditions: not told; read-out: permeability
[5] = Solubility of the compound; format: physicochemical
[6] = AUC in rat at 10 mg/kg, po; format: ADME, organism-based; conditions: in vivo
[7] = Half life in rat at 10 mg/kg, po; format: ADME, organism-based; conditions: in vivo
[8] = biological target: Voltage-gated inwardly rectifying potassium channel KCNH2 (Homo sapiens, UniProt Q12809); experiment: Inhibition of human ERG at >50 uM; format: toxicity
Voltage-gated inwardly rectifying potassium channel KCNH2, sequence (Q12809 whole entry): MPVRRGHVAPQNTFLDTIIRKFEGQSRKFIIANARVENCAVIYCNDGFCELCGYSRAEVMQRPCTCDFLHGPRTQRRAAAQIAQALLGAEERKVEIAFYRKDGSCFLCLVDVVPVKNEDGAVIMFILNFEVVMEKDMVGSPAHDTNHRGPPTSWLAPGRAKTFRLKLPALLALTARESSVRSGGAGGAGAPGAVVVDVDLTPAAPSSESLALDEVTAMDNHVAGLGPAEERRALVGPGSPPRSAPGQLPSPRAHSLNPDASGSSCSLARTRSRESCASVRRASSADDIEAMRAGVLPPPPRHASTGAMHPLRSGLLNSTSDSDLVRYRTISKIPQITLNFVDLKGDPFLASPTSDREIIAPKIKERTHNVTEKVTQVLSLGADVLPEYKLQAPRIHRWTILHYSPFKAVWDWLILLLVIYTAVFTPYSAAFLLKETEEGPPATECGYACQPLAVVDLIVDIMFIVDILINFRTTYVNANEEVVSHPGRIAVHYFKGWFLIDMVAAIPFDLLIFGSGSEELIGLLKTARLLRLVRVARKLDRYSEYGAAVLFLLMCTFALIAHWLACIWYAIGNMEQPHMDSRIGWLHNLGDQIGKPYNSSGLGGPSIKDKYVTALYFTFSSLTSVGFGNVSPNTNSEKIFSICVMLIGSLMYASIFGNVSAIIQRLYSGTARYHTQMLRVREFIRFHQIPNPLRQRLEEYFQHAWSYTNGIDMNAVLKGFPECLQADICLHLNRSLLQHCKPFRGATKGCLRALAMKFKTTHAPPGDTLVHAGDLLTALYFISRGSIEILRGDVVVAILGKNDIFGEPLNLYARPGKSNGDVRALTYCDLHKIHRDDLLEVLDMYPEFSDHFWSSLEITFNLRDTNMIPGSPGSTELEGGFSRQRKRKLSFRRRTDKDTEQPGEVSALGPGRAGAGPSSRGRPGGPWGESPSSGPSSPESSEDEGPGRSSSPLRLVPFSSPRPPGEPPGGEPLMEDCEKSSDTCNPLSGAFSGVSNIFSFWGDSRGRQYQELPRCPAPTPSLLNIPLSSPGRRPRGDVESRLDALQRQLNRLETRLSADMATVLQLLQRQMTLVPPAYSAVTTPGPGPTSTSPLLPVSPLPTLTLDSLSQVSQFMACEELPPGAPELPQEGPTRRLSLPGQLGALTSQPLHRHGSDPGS

aromatase = biological target: T2, aromatase (Homo sapiens, UniProt P11511); experiment: Inhibition of aromatase (unknown origin) at 10 uM relative to control
T2 sequence (P11511 whole entry): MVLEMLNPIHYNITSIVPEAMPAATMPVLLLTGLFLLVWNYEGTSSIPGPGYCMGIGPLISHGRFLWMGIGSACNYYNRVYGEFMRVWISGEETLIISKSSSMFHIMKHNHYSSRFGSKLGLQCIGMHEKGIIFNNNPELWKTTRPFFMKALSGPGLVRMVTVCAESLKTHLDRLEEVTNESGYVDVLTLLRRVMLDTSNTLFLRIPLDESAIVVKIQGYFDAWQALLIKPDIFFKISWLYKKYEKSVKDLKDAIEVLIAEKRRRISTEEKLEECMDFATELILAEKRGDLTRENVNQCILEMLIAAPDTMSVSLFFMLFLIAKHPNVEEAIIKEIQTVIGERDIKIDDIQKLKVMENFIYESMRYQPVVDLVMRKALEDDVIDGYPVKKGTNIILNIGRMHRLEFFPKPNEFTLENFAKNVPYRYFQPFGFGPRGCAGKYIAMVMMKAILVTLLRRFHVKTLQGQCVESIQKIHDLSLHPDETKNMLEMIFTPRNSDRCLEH

T1 sequence (P30613 whole entry): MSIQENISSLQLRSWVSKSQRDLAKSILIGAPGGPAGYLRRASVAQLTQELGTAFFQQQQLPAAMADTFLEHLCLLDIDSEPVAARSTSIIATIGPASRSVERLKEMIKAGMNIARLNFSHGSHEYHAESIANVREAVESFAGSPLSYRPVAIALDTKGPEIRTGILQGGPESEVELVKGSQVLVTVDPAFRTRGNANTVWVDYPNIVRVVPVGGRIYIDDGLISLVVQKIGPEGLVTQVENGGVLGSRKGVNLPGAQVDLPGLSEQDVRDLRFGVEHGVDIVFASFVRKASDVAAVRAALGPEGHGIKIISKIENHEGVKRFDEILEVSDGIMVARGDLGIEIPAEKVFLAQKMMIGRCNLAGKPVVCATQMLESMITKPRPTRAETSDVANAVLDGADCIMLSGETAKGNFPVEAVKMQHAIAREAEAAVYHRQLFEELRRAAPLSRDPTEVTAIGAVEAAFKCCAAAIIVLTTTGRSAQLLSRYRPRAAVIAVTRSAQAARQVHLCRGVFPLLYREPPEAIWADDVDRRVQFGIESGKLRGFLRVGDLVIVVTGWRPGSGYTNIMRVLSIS

With `Cc1cnccc1CNC(=O)c1cc(COc2ccc3c(c2)OCO3)[nH]n1` the EC50 (Pyruvate kinase PKLR [1]) was 58 µM.

For `Cc1ccc(-n2nnnc2CNC(=O)Nc2ccccc2)cc1C`, the EC50 (Pyruvate kinase PKLR [2]) was 100 µM.

For `Cc1ccc(-n2nnnc2CNC(=O)NC2CCCCC2)cc1C`, the EC50 (Pyruvate kinase PKLR [2]) was 100 µM.

In the case of `O=C(NCc1nnnn1-c1ccc(Cl)cc1)Nc1cccs1`, the EC50 (Pyruvate kinase PKLR [2]) is reported as 100 µM.

Compound `O=C(NCc1nnnn1-c1ccc(F)c(F)c1)Nc1cccs1` has an EC50 (Pyruvate kinase PKLR [2]) of 100 µM.

With `Cc1nc(CNC(=O)NCc2ncnn2-c2ccc3cccnc3c2)n(-c2ccc(Cl)c(F)c2)n1` the Activity [3] was “Non-Toxic”, the Papp A→B [4] was 1.2 ×10⁻⁶ cm/s and the solubility [5] was 59 µM (≈ 29 µg/mL). For the same compound, the AUC [6] was 2.9 µM·h, the half-life [7] was 2.4 h and the “inhibition (INH)” value [8] was “Not Active”. It also gave an inhibition at 10 µM (aromatase) of 17%.
